Data from article PMC11408460 (Cellular and Molecular Life Sciences: CMLS, 2024).
Residues, ends and D or L forms follow the SMILES beside them.

Key:
HeLa GL cells [1] = assay: Autophagy quantification by immunofluorescence (GFP-LC3B puncta area); type: cell-based; settings: 4 h, peptides 1 mg/ml, Chloroquine 10 µM, Torin-1 1 µM, confocal microscopy, n = 32–110 cells
Protocol: HeLa GL cells were grown on coverslips (VWR) and treated for 4 h with respective substance. Afterwards, cells were fixed with 4% (w/v) PFA (Santa Cruz) for 20 min and permeabilized as well as blocked with 0.5% (v/v) Triton-X-100 (Sigma-Aldrich) and 5% (v/v) fetal bovine serum (Gibco) PBS for 1 h, both at RT. Cells were then mounted on microscope slides (VWR) in 4′,6-diamidino-2-phenylindole (DAPI, VWR)-containing Mowiol mounting medium (Mowiol 4–88 10% (w/v, Carl Roth), glycerol 25% (w/v, Sigma-Aldrich), H2O 25% (v/v), 0.2 M Tris HCl pH 8.5 50% (v/v, AppliChem GmbH, VWR), DABCO 2.5% (w/v, Carl Roth)) to co-stain nuclei. After acquiring ≥ 30 randomly selected cells using a Zeiss LSM 710 confocal microscope, a custom ImageJ (Version 1.54j) macro was used to analysis the total area of the cytoplasmic eGFP-LC3B puncta as previously described.
Scale bar, 10 µm. DAPI (blue), nuclei. e Quantitative analysis of the LC3B-GFP area per cell of the data in (d). Lines represent geometric mean with 95% confidence interval, n = 32–110. […] Student’s t-test with Welch correction. *p < 0.05; **p < 0.01; ***p < 0.001

in vitro = settings: human, plasma
Protocol: (§1) The mixture was centrifuged at 13,000 rpm for 30 s, and 150 µl of the supernatant was mixed with 750 µl 10% acetic acid in ice. The samples were analyzed by an Axima Confidence MALDI-TOF MS (Shimadzu) in linear mode using exactly the same measurement conditions for all samples spotted on a 384-well plate. Wells were coated with 1 µl of 5 mg/ml CHCA previously dissolved in matrix diluent (Shimadzu), and the solvent was allowed to evaporate. Then, each sample (0.5 µl), previously mixed with matrix (0.5 µl), was applied onto the dry pre-coated well, and the solvent was allowed to evaporate. Laser shots were automatically done following a regular circular raster of a diameter of 2000 µm and spacing of 200 µm on each well; 100 profiles were acquired per sample, and 20 shots were accumulated per profile. An accelerating voltage of 20 kV was applied to the ion source. Three experiments were performed, and the measurements of each sample were done in triplicate (81 measurements in total). The measurement and MS data processing (peak area calculation) were controlled by MALDI-MS Application Shimadzu Biotech Launchpad 2.9.8.1 (Shimadzu). Half-lives were calculated by GraphPad Prism 9.3.1 (GraphPad Software, LLC).

[2] = HBA1(111–132) incubated in human plasma, 37 °C, mass spectrometry
Protocol: as §1

[3] = 1 mg/ml peptide in 1 × PBS, 22 °C, absorbance 330 nm, triplicates, corrected against PBS
Protocol: 100 µl peptide solution was transferred to transparent 96-well F-bottom microplates (Greiner) and immediately processed. Before the measurement, solutions were briefly mixed by double-orbital shaking for 60 s at 240 rpm. Measurements were done at 22 °C in triplicates using a TECAN Spark plate reader at a wavelength of 330 nm and a bandwidth of 3.5 nm. Values were corrected against 1 × PBS and averaged.

HeLa GL cells [4] = assay: Autophagy quantification via flow cytometry (membrane-bound eGFP-LC3B), HeLa GL; type: cell-based; settings: 4 h; for autophagosome levels, versions of HBA1(120–132): 1 mg/ml, co-treatment with 20 µM Chloroquine, n = 10–24
Protocol: A detailed protocol for quantification of the number of autophagosomes has previously been published. In brief, HEK293T, HeLa, and THP-1 cell lines stably expressing eGFP-LC3B (labelled as -GL respectively) were used. After cells were treated for 4 h with respective substance/fraction, cells were harvested by removing the medium and adding 0.05% trypsin (PAN Biotech). Afterwards cells were washed once with PBS and permeabilized with 0.05% (w/v) Saponin (Sigma-Aldrich) in PBS. Non-membrane bound eGFP-LC3B was washed out using PBS. Cells were fixed in 4% (w/v) paraformaldehyde in PBS. Quantification of the membrane associated eGFP-LC3B was performed using flow cytometry FACS Canto II, BD Biosciences. The mean eGFP-LC3B fluorescence intensity of the water control was then subtracted from each sample.
To discover endogenous regulators of autophagy, we analyzed a human peptide library derived from bone marrow (BM). In brief, marrow was removed from 1.5 kg human femur bones and homogenized in acetic acid. The homogenate was filtered to contain only peptides with a molecular mass below 30 kDa. The BM library was initially separated on a reversed-phase column. To analyze the autophagy-modulating properties of individual peptide fractions, we used a high-throughput flow cytometry-based autophagosome quantification system. A hallmark of autophagy is the transition from soluble LC3B-I to autophagosome-associated LC3B-II. In GFP-LC3B expressing HeLa cells (HeLa GL), soluble GFP-LC3B is washed out by mild permeabilization and the remaining membrane-bound GFP-LC3B is quantified by FACS as a proxy for autophagosome numbers. Changes in autophagosome content are visualized as deviations from the background (i.e. carrier) control. […] Further purification identified subfraction BM.25.40.28 as bioactive (Fig. 1c). To identify the active peptide(s) we subjected fractions BM.25.40.26 to BM.25.40.30 to analysis by mass spectrometry (Supplementary data 1). Peptides with a molecular mass from ~ 750 Da to 5360 Da and a length from 7 to 57 amino acids were found in the fractions (Supplementary Fig. 1a). […]

[5] = human; cited from earlier work
Circular dichroism = type: physicochemical; settings: 10 mM phosphate buffer pH 7.4, 25 °C; 130 µM HBA1(120–132), 54 µM HBA1(111–132), 2.1 µM full-length human HB
Protocol: Circular dichroism spectroscopy was recorded on a JASCO J-1500 spectrophotometer at 25 °C using a 0.1 cm path length quartz cuvette from Hellma Analytical. Data points were collected at a resolution of 0.2 nm, an integration time of 2 s and a scanning speed of 5 nm min-1. Each spectrum was the result of three accumulated independent scans. Phosphate buffer solution (10 mM, pH = 7.4) was employed to solubilize the samples. […] Background subtraction was performed using the solvent. Secondary structure estimation (SSE) for the samples was conducted using the CD Multivariate SSE program included in the JASCO spectrometer.

Molecule: CCN(CC)CCCC(C)Nc1ccnc2cc(Cl)ccc12 (stereo not drawn) [Chloroquine]
- GFP-LC3B area per cell (puncta = autophagosomes) (HeLa GL cells [1]): expected increase of autophagosomes

Molecule: CC(C)C[C@H](NC(=O)[C@H](Cc1ccccc1)NC(=O)[C@H](CCCCN)NC(=O)[C@H](CC(=O)O)NC(=O)[C@H](CC(C)C)NC(=O)[C@H](CO)NC(=O)[C@H](C)NC(=O)[C@H](Cc1c[nH]cn1)NC(=O)[C@@H](NC(=O)[C@H](C)NC(=O)[C@@H]1CCCN1C(=O)[C@@H](NC(=O)[C@H](Cc1ccccc1)NC(=O)[C@H](CCC(=O)O)NC(=O)[C@H](C)NC(=O)[C@@H]1CCCN1C(=O)[C@H](CC(C)C)NC(=O)[C@H](Cc1c[nH]cn1)NC(=O)[C@H](C)NC(=O)[C@H](C)N)[C@@H](C)O)C(C)C)C(=O)N[C@@H](C)C(=O)N[C@@H](CO)C(=O)O [HBA1(111–132)] (H-AAHLPAEFTPAVHASLDKFLAS-OH)
- half-life at 8.7 µM (in vitro): 52 min

Molecule: CC(C)C[C@H](NC(=O)[C@H](Cc1ccccc1)NC(=O)[C@H](CCCCN)NC(=O)[C@H](CC(=O)O)NC(=O)[C@H](CC(C)C)NC(=O)[C@H](CO)NC(=O)[C@H](C)NC(=O)[C@H](Cc1c[nH]cn1)NC(=O)[C@@H](NC(=O)[C@H](C)NC(=O)[C@@H]1CCCN1C(=O)[C@@H](NC(=O)[C@H](Cc1ccccc1)NC(=O)[C@H](CCC(=O)O)NC(=O)[C@H](C)NC(=O)[C@@H]1CCCN1C(=O)[C@H](CC(C)C)NC(=O)[C@@H](N)Cc1c[nH]cn1)[C@@H](C)O)C(C)C)C(=O)N[C@@H](C)C(=O)N[C@@H](CO)C(=O)O [HBA1(113–132)] (H-HLPAEFTPAVHASLDKFLAS-OH)
- time of appearance of degradation fragment above 5% of total HBA1 content [2]: ≤ 15 min
- time of peak abundance of degradation fragment post plasma treatment [2]: > 140 min

Molecule: CC(C)C[C@H](NC(=O)[C@H](Cc1ccccc1)NC(=O)[C@H](CCCCN)NC(=O)[C@H](CC(=O)O)NC(=O)[C@H](CC(C)C)NC(=O)[C@H](CO)NC(=O)[C@H](C)NC(=O)[C@H](Cc1c[nH]cn1)NC(=O)[C@@H](NC(=O)[C@H](C)NC(=O)[C@@H]1CCCN1C(=O)[C@@H](NC(=O)[C@H](Cc1ccccc1)NC(=O)[C@H](CCC(=O)O)NC(=O)[C@H](C)NC(=O)[C@@H]1CCCN1)[C@@H](C)O)C(C)C)C(=O)N[C@@H](C)C(=O)N[C@@H](CO)C(=O)O [HBA1(115–132)] (H-PAEFTPAVHASLDKFLAS-OH)
- time of appearance of degradation fragment above 5% of total HBA1 content [2]: 180 min

Molecule: CC(C)C[C@H](NC(=O)[C@H](CO)NC(=O)[C@H](C)NC(=O)[C@H](Cc1c[nH]cn1)NC(=O)[C@@H](NC(=O)[C@H](C)NC(=O)[C@@H]1CCCN1)C(C)C)C(=O)N[C@@H](C)C(=O)N[C@@H](C)C(=O)N[C@@H](Cc1ccccc1)C(=O)N[C@@H](CC(C)C)C(=O)N[C@@H](C)C(=O)N[C@@H](CO)C(=O)O [HBA1(120–132)D127A + K128A] (H-PAVHASLAAFLAS-OH)
- solubility (precipitation turbidity, optical density) [3]: almost insoluble in water

Molecule: CC(C)C[C@H](NC(=O)[C@H](C)NC(=O)[C@H](C)NC(=O)[C@H](Cc1c[nH]cn1)NC(=O)[C@@H](NC(=O)[C@H](C)NC(=O)[C@@H]1CCCN1)C(C)C)C(=O)N[C@@H](CC(=O)O)C(=O)N[C@@H](CCCCN)C(=O)N[C@@H](Cc1ccccc1)C(=O)N[C@@H](CC(C)C)C(=O)N[C@@H](C)C(=O)N[C@@H](C)C(=O)O [HBA1(120–132)S125A + S132A] (H-PAVHAALDKFLAA-OH)
- solubility (precipitation turbidity, optical density) [3]: remained similar to HBA1(120–132)

Molecule: CCC(=O)N1CCN(c2ccc(-n3c(=O)ccc4cnc5ccc(-c6cnc7ccccc7c6)cc5c43)cc2C(F)(F)F)CC1 [Torin-1]
- GFP-LC3B area per cell (puncta = autophagosomes) (HeLa GL cells [1]): expected increase of autophagosomes

Molecule: D128A: HBA1(120–132) with aspartic acid exchanged for alanine (PAVHASLAKFLAS; UniProt P69905 120-132, looked up, fragment D127A)
- autophagosome levels, versions of HBA1(120–132) (HeLa GL cells [4]): does not alter the function
- solubility (precipitation turbidity, optical density) [3]: does not alter the function nor the solubility

Molecule: K127A: HBA1(120–132) with lysine exchanged for alanine (PAVHASLDAFLAS; UniProt P69905 120-132, looked up, fragment K128A)
- autophagosome levels, versions of HBA1(120–132) (HeLa GL cells [4]): the function to inhibit autophagy was reduced
- solubility (precipitation turbidity, optical density) [3]: precipitates were detected

Molecule: TNF-α
- half-life [5]: around 18 min

Molecule: full-length HB: recombinant full-length hemoglobin
- secondary structure in solution (circular dichroism) (Circular dichroism): mainly composed of alpha-helical structures

Molecule: full-length HBA1: full-length hemoglobin A (HB subunit alpha-1)
- effect on autophagosome levels (HeLa GL cells [4]; concentration range 1 mg/ml–7.8 µg/ml, n = 3): did not impact autophagosome levels
